Measurements taken from patent publication US20140135310A1, “SULPHONAMIDE DERIVATIVES OF ALICYCLIC AMINES FOR THE TREATMENT OF CENTRAL NERVOUS SYSTEM DISEASES” (Adamed Sp. z o.o., priority 2011, published 2014).

Experiments:
receptors D4.4 = biological target: T1, receptors D4.4 (Homo sapiens, UniProt P21917); assay: Radioligand binding assay, dopaminergic D4 (D4.4) receptors; conditions: test compound 1×10^−6 M
T1 sequence (P21917 1-419): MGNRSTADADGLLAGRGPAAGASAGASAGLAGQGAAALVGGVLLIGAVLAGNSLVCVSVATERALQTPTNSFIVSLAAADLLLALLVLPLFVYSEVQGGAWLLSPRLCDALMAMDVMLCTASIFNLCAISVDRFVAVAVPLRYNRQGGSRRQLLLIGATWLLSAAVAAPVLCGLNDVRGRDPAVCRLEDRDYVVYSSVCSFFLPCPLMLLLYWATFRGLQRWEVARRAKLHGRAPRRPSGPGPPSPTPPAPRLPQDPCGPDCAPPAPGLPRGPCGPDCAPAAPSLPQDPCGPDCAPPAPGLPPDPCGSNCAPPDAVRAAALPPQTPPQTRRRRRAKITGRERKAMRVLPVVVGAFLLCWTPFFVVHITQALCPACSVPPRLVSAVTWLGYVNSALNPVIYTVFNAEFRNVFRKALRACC
From the text: (§1) The specific ligand binding to the receptors is defined as the difference between the total binding and the non-specific binding determined in the presence of the excess of unlabelled ligand.
(§2) The results are expressed as a percent of control specific binding ((measured specific binding/control specific binding)×100) and as a percent inhibition of control specific binding (100−((measured specific binding/control specific binding)×100)) obtained in the presence of the test compounds. The specific ligand binding to the receptors is defined as the difference between the total binding and the nonspecific binding determined in the presence of an excess of unlabelled ligand. Scintillation counting was the method of detection of ligand binding. The IC50 values (concentration causing a half-maximal inhibition of control specific binding) were determined by non-linear regression analysis of the competition curves generated with mean replicate values using Hill equation curve fitting (Y=D+[(A−D)/(1+(C/C50)nH)], where Y=specific binding, D=minimum specific binding, A=maximum specific binding, C=compound concentration, C50=IC50, and nH=slope factor). This analysis was performed using a software developed at Cerep (Hill software) and validated by comparison with data generated by the commercial software SigmaPlot® 4.0 for Windows® (© 1997 by SPSS Inc.). The inhibition constants (Ki) were calculated using the Cheng Prusoff equation (Ki=IC50/(1+(L/KD)), where L=concentration of radioligand in the assay, and KD=affinity of the radioligand for the receptor). A scatchard plot was used to determine the Kd.
Experimental conditions for tests are given in Table 1, the results of tests for representative compounds are given in Tables 2a and 2b (receptors D2 and D3) and in Table 3 (receptors D4).

σ receptors = assay: Radioligand binding assay, σ receptors; conditions: rat cerebral cortex, [3H]DTG 8 nM
From the text: as §1
as §2, with “This analysis was performed using a software developed at Cerep (Hill software) and validated by comparison with data generated by the commercial software SigmaPlot® 4.0 for Windows® (© 1997 by SPSS Inc.).” left out

5-HT7 receptor = biological target: T2, 5-HT7 receptor (Homo sapiens, UniProt P34969); assay: Radioligand binding assay, serotoninergic 5-HT7 receptors; conditions: binding assay result in %, Table 5a;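 also: test compound at 1 µM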
T2 construct: purchased PerkinElmer
Method in brief: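 Ki values used the Cheng–Prusoff equation, with KD from Scatchard analysis, applied to IC50 from Hill fits of human 5-HT7 radioligand competition curves. Bound radioligand was counted by scintillation, and excess unlabelled ligand set the non-specific binding.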

M3 muscarinic receptors = biological target: T3, M3 muscarinic receptors (Homo sapiens, UniProt P20309); assay: Radioligand binding assay, muscarinic M3 receptors; conditions: test compound 1×10^−6 M
T3 construct: expressed in transfected cells; host or cells: CHO cells
From the text: as §1, §2
Experimental conditions for tests are given in Table 10, and results of tests for representative compounds are given in Table 11.

[1] = biological target: T4, 5-HT1A receptor (rat hippocampus) (Rattus norvegicus, UniProt P19327); assay: Radioligand binding assay, serotoninergic 5-HT1A receptors; conditions: binding assay result in %, Table 5a;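 also: test compound at 1 µM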
T4 construct: hippocampus; from tissue; host or cells: rat hippocampus
T4 sequence (P19327 1-422): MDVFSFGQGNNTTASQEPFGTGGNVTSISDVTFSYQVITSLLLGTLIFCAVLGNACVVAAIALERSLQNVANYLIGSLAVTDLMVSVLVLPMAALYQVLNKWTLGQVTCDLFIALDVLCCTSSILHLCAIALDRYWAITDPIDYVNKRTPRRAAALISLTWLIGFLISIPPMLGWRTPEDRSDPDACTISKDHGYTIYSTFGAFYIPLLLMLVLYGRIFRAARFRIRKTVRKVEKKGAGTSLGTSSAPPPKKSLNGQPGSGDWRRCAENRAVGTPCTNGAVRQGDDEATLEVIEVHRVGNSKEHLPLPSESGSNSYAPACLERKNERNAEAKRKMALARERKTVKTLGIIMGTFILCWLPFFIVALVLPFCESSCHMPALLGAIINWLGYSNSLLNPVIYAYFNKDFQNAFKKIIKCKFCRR

[2] = tested on: α1 adrenergic receptors (rat cerebral cortex); assay: Radioligand binding assay, adrenergic α1 receptors; conditions: test compound 1×10^−6 M
Method in brief: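 Values derive from radioligand displacement, with non-specific binding defined by excess cold ligand and detection by scintillation. Hill-fit IC50s were converted to Ki via Cheng-Prusoff using Scatchard-derived Kd; percent inhibition of control specific binding also reported.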

5-HT2A receptor = biological target: T5, 5-HT2A receptor (Homo sapiens, UniProt P28223); assay: Radioligand binding assay, serotoninergic 5-HT2A receptors; conditions: for inhibition at 1 µM: binding assay result in %, Table 5a
T5 construct: purchased PerkinElmer
Method in brief: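 Competition curves from scintillation-counted specific binding (total minus binding with excess unlabelled ligand) were Hill-fitted to give IC50, converted to Ki via Cheng-Prusoff using Scatchard-derived Kd.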

[3] = biological target: T6, H1 histaminergic receptors (Homo sapiens, UniProt P35367); assay: Radioligand binding assay, histaminergic H1 receptors; conditions: human recombinant (HEK-293 cells), [3H]pyrilamine 1 nM
T6 construct: expressed in transfected cells; host or cells: HEK-293 cells
From the text: as §1, §2
Experimental conditions for tests are given in Table 14, and results of tests for representative compounds are presented in Table 15.

T6 sequence (P35367 whole entry): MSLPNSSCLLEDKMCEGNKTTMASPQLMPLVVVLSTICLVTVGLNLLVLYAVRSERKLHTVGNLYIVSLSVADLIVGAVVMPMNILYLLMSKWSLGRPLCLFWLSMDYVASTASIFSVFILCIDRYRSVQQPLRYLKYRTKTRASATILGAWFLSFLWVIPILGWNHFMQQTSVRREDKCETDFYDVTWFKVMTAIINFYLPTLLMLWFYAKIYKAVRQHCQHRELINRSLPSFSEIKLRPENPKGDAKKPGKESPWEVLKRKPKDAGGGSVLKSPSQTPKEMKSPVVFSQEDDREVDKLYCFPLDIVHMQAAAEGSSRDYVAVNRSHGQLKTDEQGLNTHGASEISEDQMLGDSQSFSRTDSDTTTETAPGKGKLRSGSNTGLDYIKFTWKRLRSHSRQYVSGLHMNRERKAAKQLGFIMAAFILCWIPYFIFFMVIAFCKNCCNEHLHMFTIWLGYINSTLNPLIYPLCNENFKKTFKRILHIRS
T2 sequence (P34969 whole entry): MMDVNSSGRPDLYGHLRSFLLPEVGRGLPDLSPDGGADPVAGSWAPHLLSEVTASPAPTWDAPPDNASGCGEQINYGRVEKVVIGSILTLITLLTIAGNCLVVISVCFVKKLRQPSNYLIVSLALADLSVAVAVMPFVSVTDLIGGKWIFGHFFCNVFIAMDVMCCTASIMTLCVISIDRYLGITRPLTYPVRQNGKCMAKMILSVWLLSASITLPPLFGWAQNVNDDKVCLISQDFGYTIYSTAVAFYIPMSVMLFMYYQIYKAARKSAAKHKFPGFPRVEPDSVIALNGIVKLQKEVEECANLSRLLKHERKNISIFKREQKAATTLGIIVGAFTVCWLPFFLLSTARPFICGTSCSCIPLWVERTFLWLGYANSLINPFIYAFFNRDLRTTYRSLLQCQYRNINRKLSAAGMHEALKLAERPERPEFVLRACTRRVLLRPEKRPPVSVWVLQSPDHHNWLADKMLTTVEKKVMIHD
T3 sequence (P20309 whole entry): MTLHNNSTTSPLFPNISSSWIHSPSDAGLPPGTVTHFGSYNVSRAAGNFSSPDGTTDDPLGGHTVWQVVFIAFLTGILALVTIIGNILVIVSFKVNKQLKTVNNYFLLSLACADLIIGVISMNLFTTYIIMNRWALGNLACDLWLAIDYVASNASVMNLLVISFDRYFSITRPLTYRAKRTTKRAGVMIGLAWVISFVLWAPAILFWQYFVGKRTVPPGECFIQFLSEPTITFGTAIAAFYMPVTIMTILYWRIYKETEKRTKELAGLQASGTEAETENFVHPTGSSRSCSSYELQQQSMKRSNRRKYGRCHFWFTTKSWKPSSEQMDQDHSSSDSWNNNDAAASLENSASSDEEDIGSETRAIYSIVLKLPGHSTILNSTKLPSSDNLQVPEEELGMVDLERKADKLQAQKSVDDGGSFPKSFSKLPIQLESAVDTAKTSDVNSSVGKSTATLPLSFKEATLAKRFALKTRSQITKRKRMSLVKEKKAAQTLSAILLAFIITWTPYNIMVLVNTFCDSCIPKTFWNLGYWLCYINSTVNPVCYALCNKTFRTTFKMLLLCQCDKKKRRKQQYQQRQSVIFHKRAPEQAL
T5 sequence (P28223 whole entry): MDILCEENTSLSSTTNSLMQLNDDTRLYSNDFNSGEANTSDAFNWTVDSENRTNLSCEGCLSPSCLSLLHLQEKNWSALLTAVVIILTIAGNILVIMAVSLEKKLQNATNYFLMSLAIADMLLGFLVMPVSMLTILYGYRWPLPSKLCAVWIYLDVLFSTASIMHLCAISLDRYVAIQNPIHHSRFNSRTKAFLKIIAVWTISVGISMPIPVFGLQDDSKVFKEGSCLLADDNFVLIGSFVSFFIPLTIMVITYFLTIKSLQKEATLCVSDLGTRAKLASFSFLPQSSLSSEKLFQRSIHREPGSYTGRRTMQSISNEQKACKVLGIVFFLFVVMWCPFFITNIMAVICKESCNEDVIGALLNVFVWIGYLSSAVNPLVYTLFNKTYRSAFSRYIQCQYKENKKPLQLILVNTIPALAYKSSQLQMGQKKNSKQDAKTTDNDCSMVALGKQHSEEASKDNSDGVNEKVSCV

O=S(=O)(NC1CCN(CCCc2noc3cc(F)ccc23)C1)c1ccc(Cl)c(F)c1 (stereo not shown) [Compound 11, 4-Chloro-3-fluoro-N-[1-[3-(6-fluoro-1,2-benzoxazol-3-yl)propyl]-pyrrolidin-3-yl]benzene-sulphonamide]
inhibition at 1 µM (receptors D4.4): 92% | σ [%] (σ receptors): 74% | inhibition at 1 µM (5-HT7 receptor): 97% | inhibition at 1 µM (M3 muscarinic receptors): 3% | inhibition at 1 µM [1]: 60% | α1 [%] [2]: 70% | inhibition at 1 µM (5-HT2A receptor): 100% | inhibition at 1 µM [3]: 37%

O=S(=O)(NC1CCN(CCCc2noc3cc(F)ccc23)C1)c1cccc2ccccc12 (stereo not shown) [Compound 20, N-[1-[3-(6-Fluoro-1,2-benzoxazol-3-yl)propyl]pyrrolidin-3-yl]naphthalene-1-sulphonamide]
inhibition at 1 µM (receptors D4.4): 100% | σ [%] (σ receptors): 83% | inhibition at 1 µM (5-HT7 receptor): 98% | inhibition at 1 µM (M3 muscarinic receptors): -7% | inhibition at 1 µM [1]: 67% | α1 [%] [2]: 86% | inhibition at 1 µM (5-HT2A receptor): 100% | inhibition at 1 µM [3]: 36%

O=S(=O)(NC1CCN(CCCc2noc3cc(F)ccc23)C1)c1ccc2ccccc2c1 (stereo not shown) [Compound 21, N-[1-[3-(6-Fluoro-1,2-benzoxazol-3-yl)propyl]pyrrolidin-3-yl]naphthalene-2-sulphonamide]
inhibition at 1 µM (receptors D4.4): 83% | σ [%] (σ receptors): 60% | inhibition at 1 µM (5-HT7 receptor): 100% | inhibition at 1 µM (M3 muscarinic receptors): -11% | inhibition at 1 µM [1]: 66% | α1 [%] [2]: 95% | inhibition at 1 µM (5-HT2A receptor): 100% | inhibition at 1 µM [3]: 57%

O=S(=O)(NC1CCN(CCCc2noc3cc(F)ccc23)C1)c1ccc2cc(Cl)ccc2c1 (stereo not shown) [Compound 23, 6-Chloro-N-[1-[3-(6-fluoro-1,2-benzoxazol-3-yl)propyl]pyrrolidin-3-yl]naphthalene-2-sulphonamide]
inhibition at 1 µM (receptors D4.4): 55% | σ [%] (σ receptors): 61% | inhibition at 1 µM (5-HT7 receptor): 95% | inhibition at 1 µM (M3 muscarinic receptors): 10% | inhibition at 1 µM [1]: 24% | α1 [%] [2]: 64% | inhibition at 1 µM (5-HT2A receptor): 99% | inhibition at 1 µM [3]: 60%

O=S(=O)(NC1CCN(CCCc2noc3cc(F)ccc23)C1)c1csc2ccccc12 (stereo not shown) [Compound 26, N-[1-[3-(6-Fluoro-1,2-benzoxazol-3-yl)propyl]pyrrolidin-3-yl]-benzothiophene-3-sulphonamide]
inhibition at 1 µM (receptors D4.4): 101% | σ [%] (σ receptors): 80% | inhibition at 1 µM (5-HT7 receptor): 97% | inhibition at 1 µM (M3 muscarinic receptors): 11% | inhibition at 1 µM [1]: 79% | α1 [%] [2]: 87% | inhibition at 1 µM [3]: 44%

Cc1c(S(=O)(=O)NC2CCN(CCCc3noc4cc(F)ccc34)C2)sc2ccc(Cl)cc12 (stereo not shown) [Compound 29, 5-Chloro-N-[1-[3-(6-fluoro-1,2-benzoxazol-3-yl)propyl]pyrrolidin-3-yl]-3-methyl-benzothiophene-2-sulphonamide]
inhibition at 1 µM (receptors D4.4): 16% | σ [%] (σ receptors): 60% | inhibition at 1 µM (5-HT7 receptor): 52% | inhibition at 1 µM (M3 muscarinic receptors): 30% | inhibition at 1 µM [1]: 70% | α1 [%] [2]: 18% | inhibition at 1 µM [3]: 59%

Cc1c(S(=O)(=O)N[C@@H]2CCN(CCCc3noc4cc(F)ccc34)C2)sc2ccc(Cl)cc12 [Compound 204, 5-Chloro-N-[(3R)-1-[3-(6-fluoro-1,2-benzoxazol-3-yl)propyl]pyrrolidin-3-yl]-3-methyl-benzothiophene-2-sulphonamide]
inhibition at 1 µM (receptors D4.4): 71% | σ [%] (σ receptors): 90% | inhibition at 1 µM (5-HT7 receptor): 87% | inhibition at 1 µM (M3 muscarinic receptors): 17% | inhibition at 1 µM [1]: 71% | α1 [%] [2]: 76% | Ki (5-HT2A receptor; read-out: Inhibition constants Ki, 5-HT2A): 0.8 nM

O=S(=O)(NC1CCN(CCCc2noc3cc(F)ccc23)C1)c1cc2ccccc2o1 (stereo not shown) [Compound 216, N-[1-[3-(6-Fluoro-1,2-benzoxazol-3-yl)propyl]pyrrolidin-3-yl]benzofuran-2-sulphonamide]
inhibition at 1 µM (receptors D4.4): 87% | σ [%] (σ receptors): 88% | inhibition at 1 µM (5-HT7 receptor): 99% | inhibition at 1 µM (M3 muscarinic receptors): 28% | inhibition at 1 µM [1]: 35% | α1 [%] [2]: 84% | inhibition at 1 µM [3]: 61%

Cc1ccc2sc(S(=O)(=O)NC3CCN(CCCc4noc5cc(F)ccc45)C3)cc2c1 (stereo not shown) [Compound 226, N-[1-[3-(6-Fluoro-1,2-benzoxazol-3-yl)propyl]pyrrolidin-3-yl]-5-methylbenzothiophene-2-sulphonamide]
inhibition at 1 µM (receptors D4.4): 69% | σ [%] (σ receptors): 82% | inhibition at 1 µM (5-HT7 receptor): 91% | inhibition at 1 µM (M3 muscarinic receptors): 8% | inhibition at 1 µM [1]: 43% | α1 [%] [2]: 73% | inhibition at 1 µM [3]: 73%

COc1ccc2cc(S(=O)(=O)NC3CCN(CCCc4noc5cc(F)ccc45)C3)ccc2c1 (stereo not shown) [Compound 227, N-[1-[3-(6-Fluoro-1,2-benzoxazol-3-yl)propyl]pyrrolidin-3-yl]-6-methoxy-naphthalene-2-sulphonamide]
inhibition at 1 µM (receptors D4.4): 88% | σ [%] (σ receptors): 59% | inhibition at 1 µM (5-HT7 receptor): 91% | inhibition at 1 µM (M3 muscarinic receptors): 13% | inhibition at 1 µM [1]: 62% | α1 [%] [2]: 85% | inhibition at 1 µM [3]: 69%

O=S(=O)(NCC1CCN(CCCc2noc3cc(F)ccc23)C1)c1cccc2ccccc12 (stereo not shown) [Compound 239, N-[[1-[3-(6-Fluoro-1,2-benzoxazol-3-yl)propyl]pyrrolidin-3-yl]methyl]naphthalene-1-sulphonamide]
inhibition at 1 µM (receptors D4.4): 78% | σ [%] (σ receptors): 97% | inhibition at 1 µM (5-HT7 receptor): 92% | inhibition at 1 µM (M3 muscarinic receptors): 23% | inhibition at 1 µM [1]: 56% | α1 [%] [2]: 91% | inhibition at 1 µM (5-HT2A receptor): 98%

N-[1-[3-(6-Fluoro-1,2-benzoxazol-3-yl)propyl]pyrrolidin-3-yl]-1-methyl-imidazole-4-sulphonamide [Compound 217]
D4.4 [%] (receptors D4.4): 72% | σ [%] (σ receptors): 86% | 5-HT7 [%] (5-HT7 receptor): 97% | M3 [%] (M3 muscarinic receptors): 6% | 5-HT1A [%] [1]: 54% | α1 [%] [2]: 40% | H1 [%] [3]: 46%
